Experimental data: PubChem BioAssay (NCI)
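Interpolation was linear, between the two tested concentrations surrounding the appropriate level; five concentrations were tested over 48 hours in 96-well plates. TGI marks complete inhibition of growth.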

Tests used:
Test in all cases: DTP human tumour cell line panel, 48 h
[1] = test system: 786-0 renal
[2] = test system: A498 renal
[3] = test system: A549 NSCLC
[4] = test system: ACHN renal
[5] = test system: BT-549 breast
[6] = test system: CAKI-1 renal
[7] = test system: CCRF-CEM leukemia
[8] = test system: COLO 205 colon
[9] = test system: DU-145 prostate
[10] = test system: EKVX NSCLC
[11] = test system: HCC-2998 colon
[12] = test system: HCT-116 colon
[13] = test system: HCT-15 colon
[14] = test system: HL-60(TB) leukemia
[15] = test system: HOP-62 NSCLC
[16] = test system: HOP-92 NSCLC
[17] = test system: HS 578T breast
[18] = test system: HT29 colon
[19] = test system: IGROV1 ovarian
[20] = test system: KM12 colon
[21] = test system: M14 melanoma
[22] = test system: MALME-3M melanoma
[23] = test system: MCF7 breast
[24] = test system: MDA-MB-231 breast
[25] = test system: MDA-MB-435
[26] = test system: MDA-N
[27] = test system: MOLT-4 leukemia
[28] = test system: NCI-H226 lung
[29] = test system: NCI-H23 lung
[30] = test system: NCI-H460 lung
[31] = test system: NCI-H522 lung
[32] = test system: NCI/ADR-RES ovarian
[33] = test system: OVCAR-3 ovarian
[34] = test system: OVCAR-4 ovarian
[35] = test system: OVCAR-5 ovarian
[36] = test system: OVCAR-8 ovarian
[37] = test system: PC-3 prostate
[38] = test system: RPMI-8226 leukemia
[39] = test system: RXF 393 renal
[40] = test system: SF-268 CNS
[41] = test system: SF-295 CNS
[42] = test system: SK-MEL-2 melanoma
[43] = test system: SK-MEL-28 melanoma
[44] = test system: SK-MEL-5 melanoma
[45] = test system: SK-OV-3 ovarian
[46] = test system: SN12C renal
[47] = test system: SNB-19 CNS
[48] = test system: SNB-75 CNS
[49] = test system: SW-620 colon
[50] = test system: T-47D breast
[51] = test system: TK-10 renal
[52] = test system: U251 CNS
[53] = test system: UACC-257 melanoma
[54] = test system: UACC-62 melanoma
[55] = test system: K-562 leukemia
[56] = test system: LOX IMVI melanoma
[57] = test system: SF-539 CNS
[58] = test system: UO-31 renal

Measured: TGI

CCSc1n/c(=C\c2ccc(N(C)C)cc2)c2nnnn12
not listed: [55] | [56] | [57] | [58]
> 100 µM: all other assays above

CC1CC2(OC2C)C(=O)OC2CCN(C)C/C=C(/COC(=O)C1(C)O)C2=O (stereo not given)
not listed: [27] | [28]
> 100 µM: all other assays above
